Square brackets hold non-standard residues; d marks the D form. Peptide text beside a SMILES is read from it.
Legend:
[1] = system: endotoxins-induced uveitis albino rat model; experiment: Endotoxins-induced uveitis (EIU), single intravenous injection, clinical scoring; format: in vivo; parameters: key to clinical score (mean±SEM) / clinical score, median: clinical ocular inflammation score per eye, 0 to 4; settings: 24 h after LPS
Experimental: The anti-inflammatory potency of the JNK inhibitor of SEQ ID NO: 172 was tested in albino rats following intravenous administration (EIU/LPS model). The aim of this study was to determine the effects of single intravenous injections of SEQ ID NO: 172 (0.015, 0.18, and 1.80 mg/kg) on the inflammatory response in an endotoxins-induced uveitis albino rat model and to compare these affects to those obtained with prior art JNK inhibitor of SEQ ID NO: 197 (2 mg/kg). As a further control served phosphate sodic dexamethasone (“reference”) and vehicle (0.9% NaCl).
Sixty (60) male Lewis rats were randomly divided into six (6) groups often (10) animals each. 0.9% NaCl (vehicle, “control”), SEQ ID NO: 197 at 2 mg/kg and SEQ ID NO: 172 at three concentrations (1.80 mg/kg, 0.18 mg/kg and 0.015 mg/kg) were administered by intravenous injection just before EIU induction (on the day of induction). Accordingly, phosphate sodic dexamethasone (20 Dg/eye, 5 μl; “reference”) was administered by a single sub-conjunctival injection in both eyes just before EIU induction (on the day of induction). EIU was induced by footpad injection of lipopolysaccharide (LPS, 1 mg/kg). 24 hours after LPS injection, inflammatory response was evaluated by clinical scoring.
The intensity of clinical ocular inflammation was scored on a scale from 0 to 4 for each eye: […]

[2] = system: mouse model of scopolamine-induced dry eye; experiment: Scopolamine-induced dry eye, topical ocular TID 21 days (TBUT, PRTT, histopathology); format: in vivo; settings: for Mean PRTT AUC: Day 7-21, in mm·day (unit assumed); for Mean Calculated TBUT AUC: Day 7 to Day 21, in s·day (unit assumed)
Experimental: The objective of this study was to assess the effects of two different compounds, the all-D-retro-inverso JNK-inhibitor (poly-)peptide of SEQ ID NO: 197 and the JNK inhibitor (poly-)peptide of SEQ ID NO: 172, at three dose levels in a mouse model of scopolamine-induced dry eye.
The peptides of SEQ ID NO: 197 and SEQ ID NO: 172 were tested for efficacy in this murine model of dry eye. The peptides were both tested at a low, medium and a high dose. […] The vehicle, which also served as the negative control, was 0.9% Sodium Chloride for Injection USP.
The study consisted of a total of 9 groups of female C57BL/6 mice, comprising 8 groups of 12 mice each and an additional group of 4 mice. Bilateral short-term dry eye was induced by a combination of scopolamine hydrobromide (Sigma-Aldrich Corp., St. Louis, Mo.) injection (subcutaneous (SC), four times daily, 0.5 mg/dose, Days 0-21) and by exposing mice to the drying environment of constant air draft. […] Mice of Group 9 were maintained as un-induced, (no dry eye) untreated controls.
During the in-life (treatment) period, clinical observations were recorded once daily; slit-lamp examination (SLE) with corneal fluorescein staining, tear break-up time test (TBUT), and phenol red thread test (PRTT) were performed three times per week. Necropsies were performed on Day 22; eyes, eye lids, conjunctivae, and lacrimal glands were collected from both eyes of each animal. Tissues from the right eyes (oculus dexter, OD) were fixed and then evaluated microscopically. Tissues from the left eyes (oculus sinister; OS) were flash-frozen in liquid nitrogen and stored frozen at −80° C. for possible subsequent analyses.
The TBUT test was conducted three times weekly by measuring the time elapsed in seconds between a complete blink after application of fluorescein to the cornea and the appearance of the first random dry spot in the tear film. […] At least ninety seconds later, corneal epithelial damage was graded using a slit-lamp with a cobalt blue filter after another drop of 0.1% fluorescein was reapplied to the cornea; the cornea then was scored per the Draize ocular scale.
Tear production was measured three times a week in both eyes using PRTT test strips (Zone-Quick; Menicon, Nagoya, Japan). Prior to the first treatment of the day, a thread was applied to the lateral canthus of the conjunctival fornix of each eye for 30 seconds under slit-lamp biomicroscopy. Tear migration up the tread (i.e., the length of the wetted cotton thread) was measured using a millimeter scale.
At necropsy on Day 22, both eyes from each animal, including the globes, lacrimal glands, eyelids, and conjunctivae, were excised. The right eye and associated tissues were fixed by overnight submersion in modified Davidson's solution followed by transfer to 10% neutral buffered formalin (NBF). The fixed tissues of the right eye were dehydrated, embedded in paraffin, sectioned at 3 to 5-μm thicknesses, and slide-mounted tissues were stained with hematoxylin and eosin (H & E). Stained slides were evaluated via light microscopy. Detailed and complete histopathologic assessment was conducted on all parts of the eye, with at least two section levels being examined histopathologically for each right eye. Special attention was paid to the cornea, epithelia (including goblet cells) of the conjunctiva and cornea, as well as the lacrimal gland. These tissues were scored for injury based upon a 0-4 scale, with 0 being normal, 1 being minimal, 2 being mild, 3 being moderate, and 4 being severe. For each cornea, scores were based on corneal epithelium thickness, and corneal inflammation.

## CC(C)C[C@H](NC(=O)[C@H](CC(N)=O)NC(=O)[C@H](CC(C)C)NC(=O)[C@@H](NC(=O)[C@@H](C)NC(=O)[C@@H]1CCCN1C(=O)[C@H](CCCNC(=N)N)NC(=O)[C@@H](CCCCN)NC(=O)[C@@H]1CCCN1C(=O)[C@H](CCCNC(=N)N)NC(=O)[C@@H](CCCNC(=N)N)NC(=O)[C@H](CCCNC(=N)N)NC(=O)[C@H](CCCNC(=N)N)NC(=O)[C@H](CCC(N)=O)NC(=O)[C@@H](CCCNC(=N)N)NC(=O)[C@H](CCCNC(=N)N)NC(=O)[C@H](CCCCN)NC(=O)[C@H](CCCCN)NC(=O)[C@H](N)CCCNC(=N)N)[C@@H](C)O)C(=O)N[C@H](Cc1ccccc1)C(N)=O [SEQ ID NO: 172, rKKRrQRRrRPkRPaTLNLf] (H-[dR]KKR[dR]QRR[dR]RP[dK]RP[dA]TLNL[dF]-NH2; N-terminus assumed)
[1]; 0.015 mg/kg i.v.
  clinical score (mean±SEM): 2.3±0.3
  clinical score, median: 2
  reduction of inflammation vs vehicle: 36%
[1]; 0.18 mg/kg i.v.
  clinical score (mean±SEM): 2.4±0.3
  clinical score, median: 2
  reduction of inflammation vs vehicle: 33%
[1]; 1.80 mg/kg i.v.
  clinical score (mean±SEM): 2.1±0.3
  clinical score, median: 2
  reduction of severity of ocular inflammation vs vehicle: 42%
[2]; 0.05% TID OU
  TBUT mean nadir (Day 7): 6.6 ± 0.4 s
  TBUT mean peak (Day 9): 8.0 ± 0.4 s
  Mean PRTT AUC: 44.38
  Mean Calculated TBUT AUC: 102.98
[2]; 0.2% TID OU
  TBUT mean nadir (Day 7): 6.7 ± 0.4 s
  TBUT mean peak (Day 9): 10.0 ± 0.7 s
  histological cornea scores compared to cyclosporine group: not significantly different than the cyclosporine group scores
  Mean PRTT AUC: 44.85
  Mean Calculated TBUT AUC: 119.08
[2]; 0.6% TID OU
  TBUT mean nadir (Day 7): 6.7 ± 0.3 s
  TBUT mean peak (Day 9): 9.9 ± 0.8 s
  histological cornea scores compared to cyclosporine group: not significantly different than the cyclosporine group scores
  Mean PRTT AUC: 46.10
  Mean Calculated TBUT AUC: 119.31
[2]; SEQ ID NO: 172 0.05%, 0.2% and 0.6%, cyclosporine 0.05%, Kruskal-Wallis
  TBUT AUC compared with vehicle control: significant increases in the TBUT AUC
[2]; low, mid and high dose levels
  PRTT, aqueous tear production: produced significantly more aqueous tears compared to vehicle-treated animals

## CC(C)C[C@@H](NC(=O)[C@@H](Cc1ccccc1)NC(=O)[C@H]1CCCN1C(=O)[C@@H](CCC(N)=O)NC(=O)[C@H](NC(=O)[C@H]1CCCN1C(=O)[C@@H](CCCNC(=N)N)NC(=O)[C@@H](CO)NC(=O)[C@@H](CCC(N)=O)NC(=O)[C@H](N)CC(=O)O)C(C)C)C(=O)N[C@H](CC(N)=O)C(=O)N[C@H](CC(C)C)C(=O)N[C@@H](C(=O)N[C@@H](C(=O)N1CCC[C@@H]1C(=O)N[C@H](CCCNC(=N)N)C(=O)N[C@H](CCCCN)C(=O)N1CCC[C@@H]1C(=O)N[C@H](CCCNC(=N)N)C(=O)N1CCC[C@@H]1C(=O)N1CCC[C@@H]1C(=O)N[C@H](CCCNC(=N)N)C(=O)N[C@H](CCCNC(=N)N)C(=O)N[C@H](CCCNC(=N)N)C(=O)N[C@H](CCC(N)=O)C(=O)N[C@H](CCCNC(=N)N)C(=O)N[C@H](CCCNC(=N)N)C(=O)N[C@H](CCCCN)C(=O)N[C@H](CCCCN)C(=O)N[C@H](CCCNC(=N)N)C(=O)NCC(N)=O)[C@H](C)O)[C@H](C)O [SEQ ID NO: 197, dqsrpvqpflnlttprkprpprrrqrrkkrg, reference compound] (H-[dD][dQ][dS][dR][dP][dV][dQ][dP][dF][dL][dN][dL][dT][dT][dP][dR][dK][dP][dR][dP][dP][dR][dR][dR][dQ][dR][dR][dK][dK][dR]G-NH2)
[1]; 2 mg/kg i.v.
  clinical score (mean±SEM): 2.2±0.3
  clinical score, median: 2
  decrease of EIU scores vs vehicle group: 40%
[2]; 0.06% TID OU
  corneal changes in comparison to other treatment groups: slightly more severe
  Mean PRTT AUC: 39.96
  Mean Calculated TBUT AUC: 88.54
[2]; 0.25% TID OU
  Mean PRTT AUC: 42.79
  Mean Calculated TBUT AUC: 91.19
[2]; 0.6% TID OU
  histological cornea scores compared to cyclosporine group: not significantly different than the cyclosporine group scores
  Mean PRTT AUC: 43.17
  Mean Calculated TBUT AUC: 89.98
[2]; low, mid and high dose levels
  PRTT, aqueous tear production: generally dose-dependent increases in PRTT
  TBUT: slight generally dose-dependent increases in TBUT

Reference: patent US11331364B2, “Use for JNK inhibitor molecules for treatment of various diseases” (Xigen Inflammation Ltd., priority 2014, dated 2022)
